Our source for the Ki values is patent US7498441B2, “Biaryltetrahydroisoquinoline piperidines as selective MCH receptor antagonists for the treatment of obesity and related disorders” (Schering Corporation, priority 2003, dated 2009).

Like-named read-outs stand apart in the source and are kept apart here.

The test has as its target T1, MCH receptor (Homo sapiens, UniProt Q99705).
T1 construct: expressed in transfected cells; host or cells: CHO cells
The test is described as follows: MCH Receptor Binding Assay ([125I]-MCH, SPA, membranes from CHO cells expressing the MCH receptor). On the procedure: Membranes from CHO cells expressing the MCH receptor were prepared by lysing cells with 5 mM HEPES for 15 min at 4 C. Cell lysates were centrifuged ([…], 15 min) and the pellet was resuspended in 5 mM HEPES. For each 96-well plate (Microlite, Dynex Technologies), 1 mg of cell membranes were incubated with 10 mg of wheat germ agglutinin SPA beads (Amersham) for 5 min at 4 C in a volume of 10 ml of binding buffer (25 mM HEPES, 10 mM MGCl2, 10 mM NaCl, 5 mM MnCl2, 0.1% BSA). The membrane/bead mixture was centrifuged (1500×g, 3.5 min), the supernatant was aspirated, and the pellet was resuspended in 10 ml binding buffer. The centrifugation, aspiration and resuspension were then repeated. The membrane/bead mixture (100 μl) was then added to 96-well plates containing 50 μl of 500 pM [^125I]-MCH (NEN) and […] of the appropriate concentration of compound (4× the desired final concentration). Nonspecific binding was determined by including 1 μM MCH in the binding reaction. The binding reaction was incubated at room temperature for 2 h. Plates were then analyzed in a TOPCOUNT microplate scintillation counter (Packard). Data was analyzed and Ki values for the compounds of Formula 1 were determined using GraphPad Prim.

[1] abbreviates: MCH Receptor Activity (Preferred Compounds), dissociation constants, read-out: Ave KiMCH.
Where [2] appears, read: MCH Receptor Antagonist Activity, rated A/B/C, read-out: Av. MCH Ki.

T1 sequence (Q99705 whole entry): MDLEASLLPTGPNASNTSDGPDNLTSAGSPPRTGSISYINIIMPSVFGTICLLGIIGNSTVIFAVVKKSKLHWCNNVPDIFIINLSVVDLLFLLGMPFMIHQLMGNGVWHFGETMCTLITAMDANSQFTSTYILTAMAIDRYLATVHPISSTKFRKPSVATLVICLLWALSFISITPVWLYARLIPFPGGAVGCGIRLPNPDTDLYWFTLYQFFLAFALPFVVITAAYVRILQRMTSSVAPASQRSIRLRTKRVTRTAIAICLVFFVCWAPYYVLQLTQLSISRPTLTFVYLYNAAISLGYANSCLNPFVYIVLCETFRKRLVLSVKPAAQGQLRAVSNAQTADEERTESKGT

For `N#Cc1cccc(-c2ccc3c(c2)CCN(CC(=O)Nc2cc(Cl)cc(Cl)c2)C3C2CCN(C3CCCC3)CC2)c1` (stereo not shown) [Example 1], the Ki under setting [1] stood at 11.2 nM. With `O=C(CN1CCc2cc(-c3cccc(C(F)(F)F)c3)ccc2C1C1CCN(C2CCCC2)CC1)Nc1cc(Cl)cc(Cl)c1` (stereo not shown) [Example 1], the Ki under setting [2] lay within 100 to 500 nM. Same read-out and setting: with `O=C(CN1CCc2cc(-c3ccccc3)ccc2C1C1CCN(C2CCCC2)CC1)Nc1cc(Cl)cc(Cl)c1` (stereo not shown) [Example 2] the figure was 100 to 500 nM; with `N#Cc1ccc(-c2ccc3c(c2)CCN(CC(=O)Nc2cc(Cl)cc(Cl)c2)C3C2CCN(C3CCCC3)CC2)cc1` (stereo not shown) [Example 3], 100 to 500 nM.

For the compound `O=C(CN1CCc2cc(-c3cccc(F)c3)ccc2C1C1CCN(C2CCCC2)CC1)Nc1cc(Cl)cc(Cl)c1` (stereo not shown) [Example 4], the Ki under setting [2] fell in the range of 1 to 100 nM. On the same count and under the same terms, in the case of `O=C(CN1CCc2cc(-c3cccc(Cl)c3)ccc2C1C1CCN(C2CCCC2)CC1)Nc1cc(Cl)cc(Cl)c1` (stereo not shown) [Example 5] it was 1 to 100 nM; in that of `COc1cccc(-c2ccc3c(c2)CCN(CC(=O)Nc2cc(Cl)cc(Cl)c2)C3C2CCN(C3CCCC3)CC2)c1` (stereo not shown) [Example 6], 1 to 100 nM.

As for `O=C(CN1CCc2cc(-c3cccc(OC(F)(F)F)c3)ccc2C1C1CCN(C2CCCC2)CC1)Nc1cc(Cl)cc(Cl)c1` (stereo not shown) [Example 8], the Ki under setting [2] is 1 to 100 nM.

With `O=Cc1cccc(-c2ccc3c(c2)CCN(CC(=O)Nc2cc(Cl)cc(Cl)c2)C3C2CCN(C3CCCC3)CC2)c1` (stereo not shown) [Example 9], the Ki under setting [2] was in the range of 1 to 100 nM.

Take `O=C(CN1CCc2cc(-c3cc(Cl)ccc3Cl)ccc2C1C1CCN(C2CCCC2)CC1)Nc1cc(Cl)cc(Cl)c1` (stereo not shown) [Example 10]: under setting [2], the Ki lay in the range of 1 to 100 nM.

For `O=C(CN1CCc2cc(-c3ccncc3)ccc2C1C1CCN(C2CCCC2)CC1)Nc1cc(Cl)cc(Cl)c1` (stereo not shown) [Example 12], the Ki under setting [1] is 24 nM.

For `O=C(CN1CCc2cc(-c3ccsc3)ccc2C1C1CCN(C2CCCC2)CC1)Nc1cc(Cl)cc(Cl)c1` (stereo not shown) [Example 13], the Ki under setting [2] is 100 to 500 nM. On the same count and under the same terms, in the case of `O=C(CN1CCc2cc(-c3cccc(-c4ncc[nH]4)c3)ccc2C1C1CCN(C2CCCC2)CC1)Nc1cc(Cl)cc(Cl)c1` (stereo not shown) [Example 14] it was 1 to 100 nM.

Turning to `O=C(CN1CCc2cc(-c3ccc[nH]3)ccc2C1C1CCN(C2CCCC2)CC1)Nc1cc(Cl)cc(Cl)c1` (stereo not shown) [Example 15], the Ki under setting [2] lay within 100 to 500 nM. On to `O=C(CN1CCc2cc(-c3cccnc3)ccc2C1C1CCN(C2CCCC2)CC1)Nc1cc(Cl)cc(Cl)c1` (stereo not shown) [Example 16], for which the Ki under setting [1] came to 23 nM. As to `CN1CCC(C2c3ccc(-c4cccc(C#N)c4)cc3CCN2CC(=O)Nc2cc(Cl)cc(Cl)c2)CC1` (stereo not shown) [Example 17], the Ki under setting [1] was found to be 22 nM. On to `O=C(CN1CCc2cc(-c3cccc(C(=O)O)c3)ccc2C1C1CCN(C2CCCC2)CC1)Nc1cc(Cl)cc(Cl)c1` (stereo not shown) [Example 18], for which, under setting [2], the Ki is greater than 500 nM. Regarding `N#Cc1cccc(-c2ccc3c(c2)CCN(CC(=O)Nc2cc(Cl)cc(Cl)c2)C3C2CCN(Cc3ccccc3)CC2)c1` (stereo not shown) [Example 19], the Ki was 23 nM under setting [1] and 1 to 100 nM under setting [2]. For the compound `N#Cc1cccc(-c2ccc3c(c2)CCN(CC(=O)Nc2cc(Cl)cc(Cl)c2)C3C2CCNCC2)c1` (stereo not shown) [Example 20], under setting [1], the Ki was determined as 26 nM.

Consider `O=C(CN1CCc2cc(-c3cccc4cccnc34)ccc2C1C1CCN(C2CCCC2)CC1)Nc1cc(Cl)cc(Cl)c1` (stereo not shown) [Example 20], for which, under setting [2], the Ki is greater than 500 nM. For the compound `N#Cc1cccc(-c2ccc3c(c2)CCN(CC(=O)Nc2cc(Cl)cc(Cl)c2)C3C2CCN(CCCCCO)CC2)c1` (stereo not shown) [Example 21], the Ki under setting [1] was found to be 6.8 nM. In the case of `N#Cc1cccc(-c2ccc3c(c2)CCN(CC(=O)Nc2cc(Cl)cc(Cl)c2)C3C2CCN(C3CCCCCC3)CC2)c1` (stereo not shown) [Example 22], the Ki under setting [1] amounted to 10 nM.

As to `CN1CCC(N2CCC(C3c4ccc(-c5cccc(C#N)c5)cc4CCN3CC(=O)Nc3cc(Cl)cc(Cl)c3)CC2)CC1` (stereo not shown) [Example 23], under setting [2], the Ki was in the range of 1 to 100 nM. In the case of `N#Cc1cccc(-c2ccc3c(c2)CCN(CC(=O)Nc2cc(Cl)cc(Cl)c2)C3C2CCN(C3CCOCC3)CC2)c1` (stereo not shown) [Example 24], under setting [1], the Ki stood at 6.4 nM. Still for that read-out and setting: with `N#Cc1cccc(-c2ccc3c(c2)CCN(CC(=O)Nc2cc(Cl)cc(Cl)c2)C3C2CCN(C3CCSC3)CC2)c1` (stereo not shown) [Example 25] the figure was 7 nM. The same measure, in the same setting: in the case of `N#Cc1cccc(-c2ccc3c(c2)CCN(CC(=O)Nc2cc(Cl)cc(Cl)c2)C3C2CCN(Cc3ccoc3)CC2)c1` (stereo not shown) [Example 26] it was 14 nM. In the case of `COc1ccccc1CN1CCC(C2c3ccc(-c4cccc(C#N)c4)cc3CCN2CC(=O)Nc2cc(Cl)cc(Cl)c2)CC1` (stereo not shown) [Example 27], the Ki under setting [1] was found to be 16 nM. Same read-out and setting: with `N#Cc1cccc(-c2ccc3c(c2)CCN(CC(=O)Nc2cc(Cl)cc(Cl)c2)C3C2CCN(CC3CC3)CC2)c1` (stereo not shown) [Example 28] the figure was 9.3 nM. The same measure, in the same setting: in the case of `N#Cc1cccc(-c2ccc3c(c2)CCN(CC(=O)Nc2cc(Cl)cc(Cl)c2)C3C2CCN(C3CCC3)CC2)c1` (stereo not shown) [Example 29] it was 15 nM. As for `N#Cc1cccc(-c2ccc3c(c2)CCN(CC(=O)Nc2cc(Cl)cc(Cl)c2)C3C2CCN(CCCc3ccccc3)CC2)c1` (stereo not shown) [Example 30], the Ki under setting [2] fell in the range of 1 to 100 nM. Still for that read-out and setting: in the case of `CC(C)N1CCC(C2c3ccc(-c4cccc(C#N)c4)cc3CCN2CC(=O)Nc2cc(Cl)cc(Cl)c2)CC1` (stereo not shown) [Example 31] it was 1 to 100 nM.

In the case of `N#Cc1cccc(-c2ccc3c(c2)CCN(CC(=O)Nc2cc(Cl)cc(Cl)c2)C3C2CCN(C3CCCCC3)CC2)c1` (stereo not shown) [Example 32], the Ki under setting [1] came to 10 nM. Take `N#Cc1cccc(-c2ccc3c(c2)CCN(CC(=O)Nc2cc(Cl)cc(Cl)c2)C3C2CCN(C(=O)C3CCCC3)CC2)c1` (stereo not shown) [Example 33]: the Ki under setting [2] is greater than 500 nM. The same measure, in the same setting: in the case of `CCN(CC)C(=O)N1CCC(C2c3ccc(-c4cccc(C#N)c4)cc3CCN2CC(=O)Nc2cc(Cl)cc(Cl)c2)CC1` (stereo not shown) [Example 34] it was 100 to 500 nM. Same read-out and setting: with `CC(=O)N1CCC(C2c3ccc(-c4cccc(C#N)c4)cc3CCN2CC(=O)Nc2cc(Cl)cc(Cl)c2)CC1` (stereo not shown) [Example 35] the figure was greater than 500 nM; with `CS(=O)(=O)N1CCC(C2c3ccc(-c4cccc(C#N)c4)cc3CCN2CC(=O)Nc2cc(Cl)cc(Cl)c2)CC1` (stereo not shown) [Example 36], greater than 500 nM; with `CN(C)S(=O)(=O)N1CCC(C2c3ccc(-c4cccc(C#N)c4)cc3CCN2CC(=O)Nc2cc(Cl)cc(Cl)c2)CC1` (stereo not shown) [Example 37], 100 to 500 nM. Same read-out and setting: in the case of `N#Cc1cccc(-c2ccc3c(c2)CCN(CC(=O)Nc2cc(Cl)cc(Cl)c2)C3C2CCN(Cc3nccs3)CC2)c1` (stereo not shown) [Example 38] it was 100 to 500 nM; in that of `CCS(=O)(=O)N1CCC(C2c3ccc(-c4cccc(C#N)c4)cc3CCN2CC(=O)Nc2cc(Cl)cc(Cl)c2)CC1` (stereo not shown) [Example 39], greater than 500 nM. Consider `N#Cc1cccc(-c2ccc3c(c2)CCN(C(=O)Nc2cc(Cl)cc(Cl)c2)C3C2CCN(Cc3ccccc3)CC2)c1` (stereo not shown) [Example 40], for which the Ki under setting [2] was greater than 500 nM. Turning to `N#Cc1cccc(-c2ccc3c(c2)CCN(C(=O)Nc2ccc(Cl)c(Cl)c2)C3C2CCN(Cc3ccccc3)CC2)c1` (stereo not shown) [Example 41], under setting [2], the Ki was greater than 500 nM. With `N#Cc1cccc(-c2ccc3c(c2)CCN(Cc2nc4ccccc4[nH]2)C3C2CCN(Cc3ccccc3)CC2)c1` (stereo not shown) [Example 42], the Ki under setting [2] lay within 100 to 500 nM.

With `N#Cc1cccc(-c2ccc3c(c2)CCN(Cc2nc4cc(Cl)c(Cl)cc4[nH]2)C3C2CCN(Cc3ccccc3)CC2)c1` (stereo not shown) [Example 43], the Ki under setting [2] was in the range of 1 to 100 nM. The same measure, in the same setting: with `CN1CCC(C2c3ccc(-c4cccc(C#N)c4)cc3CCN2Cc2nc3cc(Cl)c(Cl)cc3[nH]2)CC1` (stereo not shown) [Example 44] the figure was 100 to 500 nM; with `N#Cc1cccc(-c2ccc3c(c2)CCN(Cc2nc4cc(F)c(Cl)cc4[nH]2)C3C2CCN(Cc3ccccc3)CC2)c1` (stereo not shown) [Example 45], 1 to 100 nM.
